Source: EP4696306A1, “ADENOSINE TRIPHOSPHATE SECRETION INHIBITOR, HEPATIC STELLATE CELL ACTIVATION INHIBITOR, HEPATIC STELLATE CELL DEACTIVATOR, HEPATIC FIBROSIS THERAPEUTIC AGENT, NON-ALCOHOLIC STEATOHEPATITIS THERAPEUTIC AGENT, PSORIASIS THERAPEUTIC AGENT, AND USE OF COMPOUND FOR PRODUCING ADENOSINE TRIPHOSPHATE …” (KURUME UNIVERSITY, priority 2023, dated 2024)
Counter-ions that a name gives are not always drawn.

Experiments:
catecholamine transport = assay: Catecholamine (3H-dopamine) transport in chromaffin granule membranes; format: biochemical, bovine; conditions: MANT-ATP; N = 3
Description: (§1) Chromaffin granule membranes were prepared from adrenal glands collected from slaughtered cattle according to Reference A (Nathan Nelson et al., 1988, Chromaffin Granule Proton Pump, Methods in Enzymology, 157, 619-633). Chromaffin granule membranes prepared by sucrose density gradient centrifugation were suspended in 2 ml of SME buffer (20 mM MOPS-tris (pH 7.0), 0.3 M sucrose, 5 mM EDTA, 10 µg/ml leupeptin, and 10 µg/ml pepstatin) + 25% glycerol, and the resulting suspension was aliquoted and stored at -80°C. Under these conditions, the ATP transport activity, the V-ATPase activity, and the catecholamine transport activity remain fully active for at least one year.
A catecholamine transport inhibition experiment was carried out in the same manner as the ATP transport experiment except that the experiment used a measurement liquid containing 20 mM MOPS-tris (pH 7.0), 0.1 M sucrose, 0.1 M potassium chloride, 5 mM magnesium acetate, and about 5 µg of chromaffin granule membranes. To 0.5 ml of the measurement liquid, 2 mM ATP was added, and the resulting mixture was incubated at 30°C for about 5 minutes, followed by addition of^3 [H]-dopamine thereto to a final concentration of 10 µM. After further incubation at 30°C for 15 minutes, 0.2 ml of the reaction liquid was subjected to suction filtration through a Millipore MCE membrane filter with a pore size of 0.45 µm, and the radioactivity on the filter was measured (N = 3). The substrate, ^3[H]-dopamine, was prepared by mixing 3,4-[RING-2,5,6-^3H]dihydroxyphenylethylamine (dopamine) (30 Ci/mmol) (manufactured by New England Nuclear) with dopamine hydrochloride (manufactured by LKT Laboratories) such that a final concentration of 0.1 mM was achieved during the use.
(§2) Chromaffin granule membrane vesicles were prepared in the same manner as in Example 5, and uptake of radiolabeled ATP into the vesicles was measured. Transport activity of catecholamine (dopamine) and ATP-dependent proton transport by V-ATPase were also measured in the same manner as in Example 5.

[1] = tested on: ATP transport activity in isolated chromaffin granule membranes; assay: ATP transport (3H-ATP uptake) in chromaffin granule membrane vesicles; format: biochemical, bovine; conditions: MANT-ATP; N = 3
[2] = tested on: ATP transport activity in isolated chromaffin granule membranes; assay: as above; format: biochemical, bovine; conditions: N = 3
Description: as §1
An ATP transport inhibition experiment for the chromaffin granule membrane was carried out according to Reference B (Yoshinori Moriyama et al., 2022, Is the vesicular nucleotide transporter a molecular target of eicosapentaenoic acid?, Frontiers in Pharmacology, 103389). About 20 µg of chromaffin granule membranes were added to 0.5 ml of measurement buffer (20 mM MOPS-tris (pH 7.0), 0.3 M sucrose, 5 mM potassium chloride, 5 mM magnesium acetate, 5 mM creatine phosphate, 10 units of creatine kinase, and 1 mM ^3[H]-ATP [15 KBq/assay]), followed by incubation at 30°C for 1 hour. Through a Millipore MCE membrane filter with a pore size 0.45 µm, 0.2 ml of the reaction liquid was filtered by suction. Thereafter, the filter was washed with 10 ml of 20 mM MOPS-tris (pH 7.0), 0.3 M sucrose, 5 mM potassium chloride, and 5 mM magnesium acetate, and dissolved in 10 ml of Clear-sol II (manufactured by Nacalai Tesque, Inc.). The radioactivity was then measured using a liquid scintillation counter (N = 3).
The reaction was initiated by adding 50 mM ^3[H]-ATP to a final concentration of 1 mM. The 50 mM ^3[H]-ATP was prepared by mixing an ATP-tris solution (manufactured by Sigma-Aldrich) with [2,8-^3H] adenosine triphosphate tetrasodium salt (26.0 Ci/mmol) (manufactured by New England Nuclear). PEP was used as a test reagent, and pyruvic acid was used as a negative control. Five minutes before the addition of ATP, PEP or pyruvic acid, as a solution in 20 mM MOPS-tris (pH 7.0), 0.3 M sucrose, 5 mM potassium chloride, and 5 mM magnesium acetate, was added to the measurement liquid to a final PEP concentration of 0.02, 0.05, 0.1, 0.2, 0.4, or 1 mM, or to a final pyruvic acid concentration of 0.5 or 1 mM.
as §2

V-ATPase [3] = biological target: T1, V-ATPase (Bos taurus, UniProt P31404); assay: ATP-dependent proton transport by V-ATPase (acridine orange / oxonol-V fluorescence quenching); format: biochemical, bovine
T1 construct: from tissue; host or cells: bovine adrenal medulla chromaffin granule membranes
T1 sequence (P31404 whole entry, looked up): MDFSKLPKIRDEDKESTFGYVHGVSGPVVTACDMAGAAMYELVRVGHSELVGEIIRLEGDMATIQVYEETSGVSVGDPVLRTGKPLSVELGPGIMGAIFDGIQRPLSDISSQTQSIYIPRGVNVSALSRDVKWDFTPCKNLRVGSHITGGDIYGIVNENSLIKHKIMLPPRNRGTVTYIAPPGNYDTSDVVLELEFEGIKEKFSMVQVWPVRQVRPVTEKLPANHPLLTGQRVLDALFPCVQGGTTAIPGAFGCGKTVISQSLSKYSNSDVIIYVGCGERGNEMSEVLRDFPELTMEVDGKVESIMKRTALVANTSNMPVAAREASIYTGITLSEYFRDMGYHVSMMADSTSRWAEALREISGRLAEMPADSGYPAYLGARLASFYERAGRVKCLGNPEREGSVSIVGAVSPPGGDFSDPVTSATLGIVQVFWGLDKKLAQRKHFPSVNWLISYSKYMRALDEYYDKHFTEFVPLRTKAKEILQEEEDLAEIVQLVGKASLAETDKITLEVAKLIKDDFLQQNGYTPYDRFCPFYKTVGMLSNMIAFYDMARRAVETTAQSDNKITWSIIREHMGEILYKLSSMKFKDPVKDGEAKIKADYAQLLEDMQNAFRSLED
Description: as §1
ATP-dependent proton transport by V-ATPase was measured according to Reference B. Proton transport activity was measured using a spectrofluorometer at excitation wavelength of 492 nm and a fluorescence wavelength 540 nm, wherein fluorescence quenching of acridine orange was used as an index (N = 2). The transmembrane potential generated was measured using a spectrofluorometer at an excitation wavelength of 580 nm and a fluorescence wavelength of 630 nm, wherein fluorescence quenching of oxonol-V was used as an index (N = 2). The acridine measurement liquid (2 ml) contained 20 mM MOPS-tris (pH 7.0), 0.2 M sucrose, 0.1 M potassium chloride, 5 mM magnesium acetate, 0.2 µg valinomycin, 2 µM acridine orange, and about 20 µg of chromaffin granules. The oxonol-V measurement liquid (2 ml) contained 20 mM MOPS-tris (pH 7.0), 0.3 M sucrose, 5 mM magnesium acetate, 5 µM oxonol-V, and about 20 µg of chromaffin granules.
as §2

VNUT = biological target: T2, VNUT (Homo sapiens, UniProt Q9BYT1); assay: Inhibitory effect on VNUT (data not shown); format: biochemical
T2 sequence (Q9BYT1 1-436): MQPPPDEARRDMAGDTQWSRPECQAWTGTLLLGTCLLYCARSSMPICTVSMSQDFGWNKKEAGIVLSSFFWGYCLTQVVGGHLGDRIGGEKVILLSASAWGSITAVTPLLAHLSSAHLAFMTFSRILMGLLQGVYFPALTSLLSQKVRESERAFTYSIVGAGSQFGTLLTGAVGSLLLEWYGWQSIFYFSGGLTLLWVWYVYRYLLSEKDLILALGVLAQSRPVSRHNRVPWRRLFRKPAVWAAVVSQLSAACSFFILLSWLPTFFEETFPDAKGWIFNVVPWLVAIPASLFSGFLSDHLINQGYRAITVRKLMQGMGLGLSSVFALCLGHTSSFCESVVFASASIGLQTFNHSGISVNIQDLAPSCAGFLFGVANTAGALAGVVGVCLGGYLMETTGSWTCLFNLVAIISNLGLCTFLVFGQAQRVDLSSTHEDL

[4] = tested on: human epidermal keratinocytes; assay: ATP secretion promoted by ionomycin in keratinocytes; format: cell-based; conditions: 0.1 µM, 6 hours incubation, N = 3
Description: Human epidermal keratinocytes (Cryopreserved HEK, Lot 1758, Cell Applications Inc.) were cultured using an Epivita Keratinocyte Growth Medium Kit according to the manufacturer's instructions. The procedure was as follows. A supplement medium was added to a hydrocortisone-containing basal medium included in the medium preparation kit to prepare a complete medium. The medium in the dish was removed by aspiration. The cells were washed with 5 ml of BSS (Gbco), and then the BSS was removed by aspiration. After addition of 5 to 6 ml of trypsin/EDTA solution (Gbco), the dish was incubated at 37°C for 2 minutes. After addition of 5 ml of trypsin neutralization solution, the resulting cell suspension was transferred into two 15-ml Falcon tubes, and centrifuged at 200 × g for 5 minutes. The supernatant was removed by aspiration, and the pelleted cell cluster was suspended in 2 ml of the medium at 4.5 × 10^5 cells/ml. An aliquot of the resulting cell suspension was cryopreserved, while another aliquot was cultured and subjected to measurement.
ATP secretion by human epidermal keratinocytes (hereinafter referred to as "keratinocytes") was measured. Regarding control solutions, Krebs-Ringer HEPES supplemented with 0.2% BSA and 25 mM glucose (hereinafter also referred to as "Krebs/Iono(-)") was used as a negative control, and a solution prepared by adding 5 µM ionomycin to this solution (hereinafter also referred to as "Krebs/Iono(+)") was used as a positive control for ATP secretion. Ionomycin is a Ca^2+ ionophore. Addition of ionomycin to cells is known to promote influx of extracellular Ca^2+ into the cells to increase the intracellular Ca^2+ concentration, resulting in enhancement of ATP secretion. Test solutions were prepared by adding clodronate to Krebs/Iono(-) or Krebs/Iono(+) to a final concentration of 0.1 µM (hereinafter also referred to as "Clo/Iono(-)" or "Clo/Iono(+)", respectively) (N = 3).
Keratinocytes were cultured at 2.5 × 10^4 cells/well in a 24-well plate at 37°C in 5% CO2 for 4 days. The medium was removed by aspiration, replaced with Krebs/Iono(-) or Clo/Iono(-), and incubated at 37°C for 6 hours. These solutions were then removed by aspiration, and the content of each well incubated with Krebs/Iono(-) was replaced with 300 µl of a control solution (Krebs/Iono(-) or Krebs/Iono(+)), while the content of each well incubated with Clo/Iono(-) was replaced with 300 µl of a test solution (Clo/Iono(-) or Clo/Iono(+)). After further incubation at 37°C for 20 minutes, 200 µl of the supernatant was collected. The collected supernatant was immediately treated on a heat block at 95°C for 10 minutes, to inactivate ectonucleotidase. ATP in the supernatant was quantified using a Dojindo ATP assay kit - Luminescence (manufactured by Dojindo Laboratories).
After culturing keratinocytes, the medium was removed by aspiration, and replaced with Krebs/Iono(-), or Krebs/Iono(-) supplemented with 10 µM imeglimin, 0.1 µM EPA, 1 µM EPA, or 10 µM clodronate, followed by incubation for 6 hours. Subsequently, the solution was replaced with either a control solution (Krebs/Iono(-) or Krebs/Iono(+)) or a test solution (Krebs/Iono(+) supplemented with 10 µM imeglimin, 0.1 µM EPA, 1 µM EPA, or 10 µM clodronate), followed by incubation at 37°C for 20 minutes and then collection of 200 µl of the supernatant. The collected supernatant was immediately treated on a heat block at 95°C for 10 minutes to inactivate ectonucleotidase. ATP in the supernatant was quantified using a Dojindo ATP assay kit - Luminescence (manufactured by Dojindo Laboratories).
Keratinocytes were cultured in the same manner as in Example 1, and the medium was replaced with Krebs/Iono(-), Krebs/Iono(-) supplemented with 0.1 µM, 1 µM, or 10 µM imeglimin, or Krebs/Iono(-) supplemented with 0.1 µM, 1 µM, or 10 µM metformin, followed by incubation for 6 hours. […]

V-ATPase [5] = biological target: V-ATPase (Homo sapiens, UniProt P38606); assay: Inhibitory effect on V-ATPase (data not shown); format: biochemical
V-ATPase (Homo sapiens, UniProt P38606), sequence (P38606 whole entry): as the sequence (P31404 whole entry, looked up) above, with R10L, V131I, N157S, I199V, S204T, E576D, V590L, A599S counted along it

[6] = tested on: human epidermal keratinocytes; assay: LPS-stimulated ATP secretion in keratinocytes; format: cell-based; conditions: 10 µM; 18 hours incubation, LPS 10 µg/ml 10 minutes; N = 8
Description: Keratinocytes were cultured in the same manner as in Example 1. Keratinocytes were cultured at 2.5 × 10^4 cells/well in a 24-well plate at 37°C in 5% CO2 for 4 days. The medium was replaced with a test solution (Hanks' balanced salt solution (HBSS) (manufactured by Gibco) supplemented with imeglimin, metformin, or clodronate), and then incubation was performed at 37°C in 5% CO2 for 18 hours. Thereafter, LPS (10 µg/ml) was added thereto, and incubation was further carried out for 10 minutes, followed by collection of 200 µl of the supernatant. The supernatant was immediately treated on a heat block at 95°C for 10 minutes, and ATP in the supernatant was quantified using an ATP Assay Kit - Luminescence (manufactured by Dojindo) (N = 8).

SMILES	effect on the catecholamine transport system (catecholamine transport)	inhibition of ATP transport [1]	ID50 of ATP transport [2]	quenching of acridine orange fluorescence with MANT-ATP as substrate (V-ATPase [3]; addition of 0.1mM MANT-ATP, before addition of ATP) [%]	effect on ATP-dependent proton transport by V-ATPase (V-ATPase [3]; concentrations of up to 100 µM, N = 1)	inhibitory effect on VNUT (VNUT)	ATP secretion inhibitory effect, comparison and concentration dependence ([4]; 1 µM, 10 µM)	ATP secretion inhibitory effect [4]	inhibitory effect on V-ATPase (V-ATPase [5])	ATP secretion upon LPS stimulation [6]
CNc1ccccc1C(=O)O[C@H]1[C@@H](O)[C@H](n2cnc3c(N)ncnc32)O[C@@H]1COP(=O)(O)OP(=O)(O)OP(=O)(O)O [MANT-ATP, 2'/3'-O-(N-methyl-anthraniloyl)-adenosine-5'-triphosphate triethylammonium salt]	hardly affected	strongly inhibited ATP transport	about 30 mM	34	did not affect					
CN(C)C(=N)N=C(N)N [metformin]						neither imeglimin nor metformin exhibited a strong inhibitory effect	decreased inhibitory effect at higher concentrations	exhibit an ATP secretion inhibitory effect	neither imeglimin nor metformin exhibited a strong inhibitory effect	almost completely inhibited
